Reference: BindingDB's records for doi:10.1021/acschembio.6b00357 (Uppsala University, 2016)

Tests used:
Assay in all cases: Radioligand Binding Assay
[1] = target: T1, Adenosine receptor A3 (Homo sapiens, UniProt P0DMS8)
T1 sequence (P0DMS8 whole entry): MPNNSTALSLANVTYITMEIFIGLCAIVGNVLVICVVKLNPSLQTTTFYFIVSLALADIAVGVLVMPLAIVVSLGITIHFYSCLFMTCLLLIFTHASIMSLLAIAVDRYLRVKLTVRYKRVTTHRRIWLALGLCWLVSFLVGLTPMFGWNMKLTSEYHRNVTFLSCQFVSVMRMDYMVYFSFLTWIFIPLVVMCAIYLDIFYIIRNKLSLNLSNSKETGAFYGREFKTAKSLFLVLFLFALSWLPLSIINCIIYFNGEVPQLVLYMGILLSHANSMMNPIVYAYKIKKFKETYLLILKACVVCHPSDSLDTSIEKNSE
Procedure: (§1) Nonspecific binding was determined using adenosine-′-Nethyluronamideat 10 μM concentration.

[2] = target: T2, Adenosine receptor A1 (Homo sapiens, UniProt P30542)
T2 sequence (P30542 whole entry): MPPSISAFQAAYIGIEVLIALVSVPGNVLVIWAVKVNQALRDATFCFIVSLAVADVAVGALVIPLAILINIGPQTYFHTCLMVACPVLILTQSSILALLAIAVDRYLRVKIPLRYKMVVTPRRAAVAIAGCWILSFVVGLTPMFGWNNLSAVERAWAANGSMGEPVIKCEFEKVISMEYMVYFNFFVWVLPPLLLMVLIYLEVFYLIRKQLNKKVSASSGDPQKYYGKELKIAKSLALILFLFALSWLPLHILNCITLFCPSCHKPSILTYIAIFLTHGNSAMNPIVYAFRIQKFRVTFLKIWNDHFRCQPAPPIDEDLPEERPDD
Procedure: as §1

[3] = target: Adenosine receptor A2a (Homo sapiens, UniProt P29274)
Sequence of Adenosine receptor A2a (P29274 whole entry): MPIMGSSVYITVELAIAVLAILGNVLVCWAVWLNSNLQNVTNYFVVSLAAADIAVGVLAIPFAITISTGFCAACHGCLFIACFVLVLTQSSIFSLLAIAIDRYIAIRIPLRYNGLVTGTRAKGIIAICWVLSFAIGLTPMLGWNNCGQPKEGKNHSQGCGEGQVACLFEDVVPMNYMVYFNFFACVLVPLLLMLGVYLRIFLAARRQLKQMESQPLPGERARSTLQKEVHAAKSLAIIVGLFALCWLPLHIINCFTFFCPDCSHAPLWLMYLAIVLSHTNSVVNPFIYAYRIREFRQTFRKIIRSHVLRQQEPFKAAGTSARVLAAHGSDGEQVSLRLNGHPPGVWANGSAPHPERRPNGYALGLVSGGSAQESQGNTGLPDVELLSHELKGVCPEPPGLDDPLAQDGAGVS
Procedure: as §1

Row | Ki [1] [nM] | Ki [2] [nM] | Compound | Ki [3] [nM]
1 | 8020 |  | Cc1cn([C@@H]2O[C@H](CO)[C@@H](O)[C@H]2O)c(=O)nc1N [Adenosine receptor agonist, 13] | 
2 |  | 461 | Nc1nccc2c1ncn2[C@@H]1O[C@H](CO)[C@@H](O)[C@H]1O [CAS_6736-58-9] | 
3 | 583 | 84 | Nc1ccnc2c1ncn2[C@@H]1O[C@H](CO)[C@@H](O)[C@H]1O [1-DEAZA-ADENOSINE] | 645
4 | 823 |  | Nc1cccc2c1ncn2[C@@H]1O[C@H](CO)[C@@H](O)[C@H]1O [Adenosine receptor agonist, 7] | 
5 | 557 | 359 | Nc1ncn([C@@H]2O[C@H](CO)[C@@H](O)[C@H]2O)c(=O)c1Cl [Adenosine receptor agonist, 14] | 

Row | Compound | Ki [1] [nM] | Ki [2] [nM] | Ki [3] [nM]
6 | Nc1nc(=O)[nH]c2c1ncn2[C@@H]1O[C@H](CO)[C@@H](O)[C@H]1O [Adenosine receptor agonist, 9] | 348 | 467 | 495
